Experimental data reported in patent US4269834A, “Copper complexes of isoquinazolines” (priority 1977, dated 1981).
Converted amounts (≈) assume the structure as drawn. Read-outs that look alike come from different tables or passages of the source.

Tested on: Mycoplasma gallisepticum
Experiment: Activity against Mycoplasma gallisepticum (minimum inhibiting concentration)
Assay type: cell-based
Conditions: for MIC M. gall. with Cu: with Cu (50 μg/ml Cu^2+); for MIC: without added Cu; for MIC with Cu: media containing 50 μg/ml Cu^2+
Text: The following tables show some activities--expressed as minimum inhibiting concentration (MIC)--of the prepared compounds against various micro-organisms. The compounds are identified by reference to the Example in which they are described. When more than one compound is mentioned in an Example, they are distinguished by a number between parentheses, corresponding to their order of occurrence, for instance: VI (2) refers to the second compound prepared according to Example VI. The term "with Cu" refers to tests conducted in media containing 50 μg/ml Cu^2+.
The activities of the following compounds, not mentioned in the Examples, were also measured.

[1] = Mycoplasmoides gallisepticum, Table IVb, read-out: MIC M. gall.
[2] = Mycoplasmoides gallisepticum, Table I, read-out: MIC

Structure (SMILES)	MIC (Table I) [µg/mL]	MIC with Cu (Table I) [µg/mL]	other results
c1ccc(-c2ncc3ccccc3n2)nc1 [B]	–	–	MIC M. gall. with Cu (Table IVb): 0.5 µg/mL
Clc1ccc2nc(-c3ccccn3)ncc2c1 [C]	–	–	MIC M. gall. with Cu (Table IVb): 0.8 µg/mL
Nc1ccc2ccc3ccc(N)nc3c2n1 [E]	–	–	MIC [1]: 50 µg/mL (≈ 238 µM); MIC M. gall. with Cu (Table IVb): 0.8 µg/mL
Nc1nc(-c2ccccn2)cc2ccccc12.Nc1nc(-c2ccccn2)cc2ccccc12.O=[N+]([O-])[O-].O=[N+]([O-])[O-].[Cu+2] [Example V, bis[1-amino-3-(2-pyridyl)isoquinoline]cupric nitrate]	3	–	–
Cl.Nc1nc(-c2ccccn2)cc2cc(Cl)ccc12 [Example VII, 1-amino-6-chloro-3-(2-pyridyl)isoquinoline hydrochloride]	–	0.4	–
Cl.Nc1nc(-c2ccccn2)cc2cc(Br)ccc12 [Example X, 1-Amino-6-bromo-3-(2-pyridyl)isoquinoline hydrochloride]	–	0.4	–
C=Cn1ccnc1-c1nc(N)c2ccccc2n1 [Example XVIIIa, 4-amino-2-(1-ethenyl-1H-imidazole-2-yl)quinazoline]	–	0.2	MIC [2]: > 100 µg/mL
C=Cn1ccnc1-c1cc2ccccc2c(N)n1 [Example XVIIc, 1-amino-3-(1-ethenyl-1H-imidazole-2-yl) isoquinoline]	–	0.2	MIC [2]: > 100 µg/mL
Nc1ccc2ccc3cccnc3c2n1 [F]	–	–	MIC [1]: 25 µg/mL (≈ 128 µM); MIC M. gall. with Cu (Table IVb): 0.8 µg/mL
COc1ccc2ccc3cccnc3c2n1 [G]	–	–	MIC [1]: > 100 µg/mL; MIC M. gall. with Cu (Table IVb): 3 µg/mL
Nc1nc(-c2ccccn2)cc2c(Cl)cccc12.Nc1nc(-c2ccccn2)cc2c(Cl)cccc12.O=[N+]([O-])[O-].[Cu+] [IIa, Bis[1-amino-5-chloro-3-(2-pyridyl)isoquinoline]cuprous nitrate]	1.5	–	–
Cc1ccc2cc(-c3ccccn3)nc(N)c2c1.Cc1ccc2cc(-c3ccccn3)nc(N)c2c1.O=[N+]([O-])[O-].[Cu+] [IIb, Bis[1-amino-7-methyl-3-(2-pyridyl)isoquinoline]cuprous nitrate]	6	–	–
Nc1nc(-c2ccccn2)cc2ccccc12.Nc1nc(-c2ccccn2)cc2ccccc12.O=[N+]([O-])[O-].[Cu+] [IIc, Bis[1-amino-3-(2-pyridyl)isoquinoline]cuprous nitrate]	3	0.4	–
O=[N+]([O-])[O-].[Cu+].c1cnc2c(c1)ccc1cccnc12.c1cnc2c(c1)ccc1cccnc12 [IId, Bis(1,10-phenanthroline)cuprous nitrate]	12.5	25	–
Clc1ccc2ccc3ccc(Cl)nc3c2n1.Clc1ccc2ccc3ccc(Cl)nc3c2n1.O=[N+]([O-])[O-].[Cu+] [IIe, Bis(2,9-dichloro-1,10-phenanthroline)cuprous nitrate]	25	–	–
Nc1nc(-c2ccccn2)cc2ccccc12.O=[N+]([O-])[O-].O=[N+]([O-])[O-].[Cu+2] [IVa, Mono[1-amino-3-(2-pyridyl)isoquinoline]cupric nitrate]	1.5	–	–
Nc1nc(-c2ccccn2)cc2c(Cl)cccc12.O=[N+]([O-])[O-].O=[N+]([O-])[O-].[Cu+2] [IVb, Mono[1-amino-5-chloro-3-(2-pyridyl)isoquinoline]cupric nitrate]	0.8	–	–
Cc1cccc(-c2cc3ccccc3c(N)n2)n1.O=[N+]([O-])[O-].O=[N+]([O-])[O-].[Cu+2] [IVc, Mono[1-amino-3-(6-methyl-2-pyridyl)isoquinoline]cupric nitrate]	0.8	–	–
Cc1cccc(-c2cc3ccccc3c(N)n2)n1.Cc1cccc(-c2cc3ccccc3c(N)n2)n1.O=[N+]([O-])[O-].O=[N+]([O-])[O-].[Cu+2] [VI (2), bis[1-amino-3-(6-methyl-2-pyridyl)isoquinoline]cupric nitrate]	0.8	–	–
COc1cc2cc(-c3ccccn3)nc(N)c2cc1OC [VIIIa]	–	12.5	MIC [2]: 100 µg/mL (≈ 355 µM)
Cc1cccc2c(N)nc(-c3ccccn3)cc12 [VIIIb]	–	0.2	MIC [2]: 1.5 µg/mL (≈ 6.38 µM)
Cc1ccc2c(N)nc(-c3ccccn3)cc2c1 [VIIIc]	–	0.4	MIC [2]: 3 µg/mL (≈ 12.8 µM)

Structure (SMILES)	MIC (Table I) [µg/mL]	MIC with Cu (Table I) [µg/mL]	other results
Cc1ccc2cc(-c3ccccn3)nc(N)c2c1 [VIIId]	–	0.2	MIC [2]: 1.5 µg/mL (≈ 6.38 µM)
Nc1nc(-c2ccccn2)cc2ccc(Cl)cc12 [VIIIi]	–	0.2	–
Nc1nc(-c2ccccn2)cc2cccc(Cl)c12 [VIIIj]	–	0.2	MIC [2]: 100 µg/mL (≈ 391 µM)
CCc1ccc2cc(-c3ccccn3)nc(N)c2c1 [VIIIk]	–	0.2	–
Nc1nc(-c2ccccn2)cc2ccc(I)cc12 [VIIIl]	–	0.2	–
CCCc1nc(-c2ccccn2)cc2ccccc12.Cl [XIIIf, 1-propyl-3-(2-pyridyl)isoquinoline hydrochloride]	–	0.03	–
Clc1nc(-c2ccccn2)cc2ccccc12 [XIIc (2), 1-chloro-3-(2-pyridyl)isoquinoline]	–	0.06	–
c1ccc(-c2nc(-c3ccccn3)cc3ccccc23)cc1 [XIVb, 1-phenyl-3-(2-pyridyl)isoquinoline]	–	0.2	–
Nc1nc(-c2ncc[nH]2)cc2ccccc12.O=[N+]([O-])[O-].O=[N+]([O-])[O-].[Cu+2] [XIXb (2), Mono[1-amino-3-(1H-imidazole-2-yl)isoquinoline]cupric nitrate]	50	3	–
Nc1nc(-c2ncc[nH]2)cc2ccccc12.Nc1nc(-c2ncc[nH]2)cc2ccccc12.O=[N+]([O-])[O-].O=[N+]([O-])[O-].[Cu+2] [XIXb (3), Bis[1-amino-3-(1H-imidazole-2-yl)isoquinoline]cupric nitrate]	50	3	–
Cc1cccc(-c2cc3ccccc3c(Cl)n2)n1 [XIb, 1-Chloro-3-(6-methyl-2-pyridyl)isoquinoline]	–	1	–
Cc1cccc(-c2cc3ccccc3cn2)n1 [XIc, 3-(6-methyl-2-pyridyl)isoquinoline]	–	0.1	–
C=Cn1ccnc1-c1nc(N)c2ccccc2n1.C=Cn1ccnc1-c1nc(N)c2ccccc2n1.O=[N+]([O-])[O-].[Cu+] [XVIIIb (1), Bis[4-amino-2-(1-ethenyl-1H-imidazole-2-yl)quinazoline]cuprous nitrate]	12.5	0.2	–
C=Cn1ccnc1-c1nc(N)c2ccccc2n1.O=[N+]([O-])[O-].O=[N+]([O-])[O-].[Cu+2] [XVIIIb (2), Mono[4-amino-2-(1-ethenyl-1H-imidazole-2-yl)quinazoline]cupric nitrate]	6	0.2	–
C=Cn1ccnc1-c1nc(N)c2ccccc2n1.C=Cn1ccnc1-c1nc(N)c2ccccc2n1.O=[N+]([O-])[O-].O=[N+]([O-])[O-].[Cu+2] [XVIIIb (3), Bis[4-amino-2-(1-ethenyl-1H-imidazole-2-yl)quinazoline]cupric nitrate]	12.5	0.2	–
C=Cn1ccnc1-c1cc2ccccc2c(N)n1.C=Cn1ccnc1-c1cc2ccccc2c(N)n1.O=[N+]([O-])[O-].[Cu+] [XVIId (1), Bis[1-amino-3-(1-ethenyl-1H-imidazole-2-yl)isoquinoline]cuprous nitrate]	25	0.2	–
C=Cn1ccnc1-c1cc2ccccc2c(N)n1.O=[N+]([O-])[O-].O=[N+]([O-])[O-].[Cu+2] [XVIId (2), Mono[1-amino-3-(1-ethenyl-1H-imidazole-2-yl)isoquinoline]cupric nitrate]	12.5	0.2	–
C=Cn1ccnc1-c1cc2ccccc2c(N)n1.C=Cn1ccnc1-c1cc2ccccc2c(N)n1.O=[N+]([O-])[O-].O=[N+]([O-])[O-].[Cu+2] [XVIId (3), Bis[1-amino-3-(1-ethenyl-1H-imidazole-2-yl)isoquinoline]cupric nitrate]	12.5	0.2	–
Cn1ccnc1-c1nc(N)c2ccccc2n1 [XVIa, 4-amino-2-(1-methyl-1H-imidazole-2-yl)quinazoline]	–	0.2	MIC [2]: 25 µg/mL (≈ 111 µM)
Cn1ccnc1-c1nc(N)c2ccccc2n1.Cn1ccnc1-c1nc(N)c2ccccc2n1.O=[N+]([O-])[O-].[Cu+] [XVIb (1), Bis[4-amino-2-(1-methyl-1H-imidazole-2-yl)quinazoline]cuprous nitrate]	6	0.2	–
Cn1ccnc1-c1nc(N)c2ccccc2n1.O=[N+]([O-])[O-].O=[N+]([O-])[O-].[Cu+2] [XVIb (2), Mono[4-amino-2-(1-methyl-1H-imidazole-2-yl)quinazoline]cupric nitrate]	6	0.4	–
